Here are results for 33 compounds from patent publication US7691877B2, “Pharmaceuticals” (priority 2006, dated 2010).

A word on the pEC50: it is −log10 of the EC50, conventionally taken in molar units. A high value points to a low EC50.

The subject of test [1] is MEK, CDK1, CDK2, JNK, MSK, MSK-1, SGK, AMPK, MLCK, CHK-2, PDE3, PDE4 and PDE5. As to the kind of experiment: Selectivity for TLR7 over kinases and phosphodiesterase enzymes. Type of test: biochemical.
Another test deals with T1, TLR7 receptor (Homo sapiens, UniProt Q9NYK1).
T1 construct: PBL contain as a subpopulation plasmacytoid dendritic cells which are the natural interferon producing cells; endogenous in cells; host or cells: peripheral blood lymphocytes (PBL), containing plasmacytoid dendritic cells
T1 sequence (Q9NYK1 27-1049): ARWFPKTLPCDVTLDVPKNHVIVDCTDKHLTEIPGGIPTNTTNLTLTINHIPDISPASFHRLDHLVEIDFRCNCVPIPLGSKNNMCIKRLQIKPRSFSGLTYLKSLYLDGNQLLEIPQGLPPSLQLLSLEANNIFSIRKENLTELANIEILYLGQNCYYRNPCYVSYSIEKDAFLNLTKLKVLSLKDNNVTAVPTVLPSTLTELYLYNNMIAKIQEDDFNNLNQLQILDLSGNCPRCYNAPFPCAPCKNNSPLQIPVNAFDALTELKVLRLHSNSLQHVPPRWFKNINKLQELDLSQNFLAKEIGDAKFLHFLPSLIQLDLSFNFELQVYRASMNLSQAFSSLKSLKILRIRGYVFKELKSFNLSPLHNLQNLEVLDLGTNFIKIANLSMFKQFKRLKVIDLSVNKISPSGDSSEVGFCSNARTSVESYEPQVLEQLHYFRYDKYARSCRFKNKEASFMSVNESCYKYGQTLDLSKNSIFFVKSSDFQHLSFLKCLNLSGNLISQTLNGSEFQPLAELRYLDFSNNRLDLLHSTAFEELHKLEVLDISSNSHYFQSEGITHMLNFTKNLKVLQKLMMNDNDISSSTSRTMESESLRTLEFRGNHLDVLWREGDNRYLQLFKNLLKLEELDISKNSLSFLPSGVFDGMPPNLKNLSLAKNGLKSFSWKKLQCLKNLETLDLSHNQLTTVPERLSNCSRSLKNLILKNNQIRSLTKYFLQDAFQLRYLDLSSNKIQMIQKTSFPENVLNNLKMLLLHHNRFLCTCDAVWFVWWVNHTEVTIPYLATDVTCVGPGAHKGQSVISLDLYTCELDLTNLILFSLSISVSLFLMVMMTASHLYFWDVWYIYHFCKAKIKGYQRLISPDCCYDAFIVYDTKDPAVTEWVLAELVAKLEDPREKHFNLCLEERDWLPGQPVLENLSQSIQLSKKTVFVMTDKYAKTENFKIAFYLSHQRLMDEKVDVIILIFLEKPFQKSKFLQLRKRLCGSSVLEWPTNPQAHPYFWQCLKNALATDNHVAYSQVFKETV
As to the kind of experiment: PBL/HCV replicon bioassay. Type of test: cell-based. The following applies: concentration applied to PBL (24 h) giving 50% reduction of HCV replicon levels (luciferase) after transfer of PBL culture medium to Huh-7 replicon cells (48 h). As to the method:
PBL contain as a subpopulation plasmacytoid dendritic cells which are the natural interferon producing cells during an infection and as such are an excellent model in which to profile interferon inducers. As an extremly sensitive antiviral bioassay, supernatant taken from PBL is assayed for antiviral activity in the HCV replicon system.
The HCV replicon (Huh-5-2[I389luc-ubi-neo-NS3-3′/ET]) is an in vitro model of HCV replication in which the luciferase reporter is incorporated into HCV sequences and stably maintained in the human hepatoma cell line Huh-7. The firefly luciferase reporter is expressed as a luciferase-ubiquitin-neomycin phosphotransferase fusion protein which is cleaved by host proteases to release luciferase. The replicon also contains an internal EMCV IRES, which drives translation of HCV NS3-5B polyprotein, which harbour cell culture adapted mutations to permit high cloning efficiency. […] Firefly luciferase activity is detected using a Bright-Glo™ Luciferase Assay System manufactured by Promega.
An initial 3 fold serial dilution series of compounds in 100% DMSO is prepared from stocks. The dilution series is then further diluted 100 fold with complete RPMI-FCS. The final concentration of DMSO in the assay is thus 0.1% and that of the test compound is 1/1000 in the 100% DMSO dilution series. PBL are prepared seeded at 5×10^5/well/90 μl into the previously prepared compound containing assay plates (96 well clear bottomed TC grade) and incubated for 24 h.
LucUbiNeo HCV replicon cells are seeded at 10^4/well/90 μl. These are incubated for 24 h. After 24 h, 10 μl of medium is transferred from the PBL assay plates to the HCV replicon plates and incubated for a further 48 h.
Background: Replicon systems follow genome replication, usually without infectious particles.

Test [2] relates to all other known Toll-like Receptors. Kind of test: Selectivity for TLR7 over other Toll-like Receptors.
For test [3], the system named is MAP (mitogen-activated protein kinase). As to the kind of experiment: Selectivity for TLR7 over MAP. In kind it is biochemical.
Test [4] relates to HCV replicon containing cells. As to the kind of experiment: Direct response of HCV replicon containing cells to TLR agonists. In kind it is cell-based, human. The following applies: applied directly to replicon cells, without PBL conditioned medium.

pEC50: −log10 of the molar value.

`Nc1nc(C2CC2)cc2c1[nH]c(=O)n2Cc1ccccc1` [Example 1, 4-Amino-1-benzyl-6-cyclopropyl-1,3-dihydro-imidazo[4,5-c]pyridin-2-one]: the “selectivity for the TLR7 receptor over MEK, CDK1, CDK2, JNK, MSK, MSK-1, SGK, AMPK, MLCK, CHK-2, PDE3, PDE4 and PDE5” value (“selectivity … PDE4 and PDE5” below) in test [1] is on record as “selective”. The compound also gave a negative logarithm of the EC50 (pEC50) at TLR7 receptor of 6.03. Also, the “selectivity for the TLR7 receptor over all other known Toll-like Receptors” value in test [2] is reported as “selective”. For the compound `Cc1cc2c([nH]c(=O)n2Cc2ccccc2)c(N)n1` [Example 2, 4-Amino-1-benzyl-6-methyl-1,3-dihydro-imidazo[4,5-c]pyridin-2-one], the “selectivity … PDE4 and PDE5” value in test [1] is recorded as “selective”. Further, on TLR7 receptor, the pEC50 is 5.81. In test [2], the “selectivity for the TLR7 receptor over all other known Toll-like Receptors” value is listed as “selective”.

Compound `Cc1nc(N)c2[nH]c(=O)n(Cc3ccccc3)c2c1C` [Example 3, 1-Benzyl-4-amino-6,7-dimethyl-1,3-dihydro-imidazo[4,5-c]Pyridin-2-one] had a pEC50 on TLR7 receptor of 6.58.

With `COC(=O)c1cc2c([nH]c(=O)n2Cc2ccccc2)c(N)n1` [Example 4, 4-Amino-1-benzyl-2-oxo-2,3-dihydro-1H-imidazo[4,5-c]pyridine-6-carboxylic acid methyl ester], the pEC50 on TLR7 receptor was 6.30. This pEC50 is 0.28 log units lower than that of the compound before. As to `Nc1nc(-c2ncco2)cc2c1[nH]c(=O)n2Cc1ccccc1` [Example 12, 4-Amino-1-benzyl-6-oxazol-2-yl-1,3-dihydro-imidazo[4,5-c]pyridin-2-one], in test [3], the “selectivity for the TLR7 receptor over MAP (mitogen-activated protein kinase)” value was “selective”. The “selectivity … PDE4 and PDE5” value in test [1] is “selective”. At TLR7 receptor, the pEC50 is 6.62. In addition, the “selectivity for the TLR7 receptor over all other known Toll-like Receptors” value in test [2] is given as “selective”. As for `COCCOc1cc2c([nH]c(=O)n2Cc2ccccc2)c(N)n1` [Example 17, 4-Amino-1-benzyl-6-(2-methoxy-ethoxy)-1,3-dihydro-imidazo[4,5-c]pyridin-2-one], the negative logarithm of the EC50 (pEC50) at TLR7 receptor is 6.02.

For `CCc1coc(-c2cc3c([nH]c(=O)n3Cc3ccc(C)nc3)c(N)n2)n1` [Example 20, 4-Amino-6-(4-ethyl-oxazol-2-yl)-1-(6-methyl-pyridin-3-ylmethyl)-1,3-dihydro-imidazo[4,5-c]pyridin-2-one], the pEC50 on TLR7 receptor was 6.15. Turning to `Nc1nc(-c2ncc[nH]2)cc2c1[nH]c(=O)n2Cc1ccccc1` [Example 21, 4-Amino-1-benzyl-6-(1H-imidazol-2-yl)-1,3-dihydro-imidazo[4,5-c]pyridin-2-one], the pEC50 at TLR7 receptor is 6.67. Against the preceding compound, the pEC50 is 0.52 log units higher. Consider `Nc1nc(-c2ccccc2F)cc2c1[nH]c(=O)n2Cc1ccccc1` [Example 22, 4-Amino-1-benzyl-6-(2-fluoro-phenyl)-1,3-dihydro-imidazo[4,5-c]pyridin-2-one], for which the negative logarithm of the EC50 (pEC50) at TLR7 receptor is 6.35. Against the preceding compound, the pEC50 is 0.32 log units lower. On to `CCCc1cc2c([nH]c(=O)n2Cc2ccccc2)c(N)n1` [Example 23], for which the negative logarithm of the EC50 (pEC50) at TLR7 receptor is 5.97.

In turn, `CC(C)c1cc2c([nH]c(=O)n2Cc2ccccc2)c(N)n1` [Example 24] gave a pEC50 on TLR7 receptor of 5.80. `Cc1cc2c([nH]c(=O)n2Cc2cccc(C(F)(F)F)c2)c(N)n1` [Example 25] showed a pEC50 at TLR7 receptor of 6.00. Still for that read-out and setting: next, `Cc1cc2c([nH]c(=O)n2Cc2cccc(F)c2)c(N)n1` [Example 27]: 6.34; `Nc1nc2c(c3c1[nH]c(=O)n3Cc1ccccc1)CCC2` [Example 31]: 5.49; `Nc1nc(-c2ccccn2)cc2c1[nH]c(=O)n2Cc1ccccc1` [Example 32]: 5.77. On the same count and under the same terms, next, `COCCNCc1cc2c([nH]c(=O)n2Cc2ccccc2)c(N)n1` [Example 34]: 5.89. Still for that read-out and setting: for `CC(=O)c1cc2c([nH]c(=O)n2Cc2ccccc2)c(N)n1` [Example 36] the value was 6.43; for `CCc1cc2c([nH]c(=O)n2Cc2ccccc2)c(N)n1` [Example 37], 6.10; for `Nc1nc(C(F)F)cc2c1[nH]c(=O)n2Cc1ccccc1` [Example 38], 6.07. As to `N#Cc1cc2c([nH]c(=O)n2Cc2ccccc2)c(N)n1` [Example 39], at TLR7 receptor, the pEC50 was 5.66. The same measure, in the same setting: for `COCc1cc2c([nH]c(=O)n2Cc2ccccc2)c(N)n1` [Example 40] the value was 6.37; for `COCCNc1cc2c([nH]c(=O)n2Cc2ccccc2)c(N)n1` [Example 49], 5.66; for `Nc1nccc2c1[nH]c(=O)n2Cc1ccccc1` [Example 50], 5.71. Compound `Nc1nc(C(F)(F)F)cc2c1[nH]c(=O)n2Cc1ccc(F)cc1` [Example 54] had a pEC50 at TLR7 receptor of 6.52. Compound `COCCn1c(=O)[nH]c2c(N)nc(C(F)(F)F)cc21` [Example 55] showed a pEC50 on TLR7 receptor of 5.70. This pEC50 is 0.82 log units lower than that of the compound before. Turning to `Nc1nc(C(F)(F)F)cc2c1[nH]c(=O)n2Cc1ccc(Cl)nc1` [Example 60], the pEC50 on TLR7 receptor is 6.35. Against the preceding compound, the pEC50 is 0.65 log units higher. Still for that read-out and setting: next, `Cc1nc(N)c2[nH]c(=O)n(Cc3ccc(F)cc3)c2c1C` [Example 61]: 5.77.

`Nc1nc(C(F)(F)F)cc2c1[nH]c(=O)n2Cc1ccc(Br)cc1` [Example 70]: the pEC50 at TLR7 receptor is 6.18. Against the preceding compound, the pEC50 is 0.41 log units higher. The same measure, in the same setting: next, `Cc1ccc(Cn2c(=O)[nH]c3c(N)nc(-c4cnco4)cc32)cn1` [Example 78]: 7.00. The same measure, in the same setting: next, `Cc1ccc(Cn2c(=O)[nH]c3c(N)nc(-c4ncno4)cc32)cn1` [Example 82]: 6.90; `Nc1nc(-n2cccn2)cc2c1[nH]c(=O)n2Cc1ccccc1` [Example 83]: 6.33; `Cc1cnn(-c2cc3c([nH]c(=O)n3Cc3ccccc3)c(N)n2)c1` [Example 86]: 6.26. In the case of `CC(C)Cn1cnc2c(N)nc3ccccc3c21` [Imiquimod], in test [4], the “direct response of HCV replicon containing cells to the TLR agonist” value was “do not respond directly”.
